Assay results as given in patent publication US6825170B2, “6-O-acyl ketolide antibacterials” (Ortho-McNeil Pharmaceutical, Inc., priority 2001, dated 2004).
Values after ≈ are worked out from the molar mass of the structure shown.

Columns and labels:
Assay in all cases: MIC, microdilution broth method (NCCLS)
Type in all cases: cell-based
Conditions in all cases: 35° C., 16-20 hours
E. faecalis ATCC29212 = test system: E. faecalis ATCC29212
Experimental: (§1) Minimal inhibitory concentration (MIC) has been an indicator of in vitro antibacterial activity widely used in the art. The in vitro antimicrobial activity of the compounds was determined by the microdilution broth method following the test method from the National Committee for Clinical Laboratory Standards (NCCLS). This method is described in the NCCLS Document M7-A4, Vol.17, No.2, “Methods for Dilution Antimicrobial Susceptibility Test for Bacteria that Grow Aerobically—Fourth Edition”, which is incorporated herein by reference.
(§2) In this method two-fold serial dilutions of drug in cation adjusted Mueller-Hinton broth are added to wells in microdilution trays. The test organisms are prepared by adjusting the turbidity of actively growing broth cultures so that the final concentration of test organism after it is added to the wells is approximately 5×10^4 CFU/well.
(§3) Following inoculation of the microdilution trays, the trays are incubated at 35° C. for 16-20 hours and then read. […] The amount of growth in the wells containing the test compound is compared with the amount of growth in the growth-control wells (no test compound) used in each tray. As set forth in Table 1, compounds of the present invention were tested against a variety of Gram positive and Gram negative pathogenic bacteria resulting in a range of activities depending on the organism tested.

H. influenzae ATCC49247 = test system: H. influenzae ATCC49247
Experimental: as §1, §2, §3

S. aureus ATCC29213 = test system: S. aureus ATCC29213
Experimental: as §1, §2, §3

S. pneumoniae ATCC49619 = test system: S. pneumoniae ATCC49619
Experimental: as §1, §2, §3

Row | SMILES | MIC (C: E. faecalis ATCC29212) (E. faecalis ATCC29212) [µg/mL] | MIC (E: H. influenzae ATCC49247) (H. influenzae ATCC49247) [µg/mL] | MIC (B: S. aureus ATCC29213) (S. aureus ATCC29213) [µg/mL] | MIC (D: S. pneumoniae ATCC49619) (S. pneumoniae ATCC49619)
1 | CCC1OC(=O)C(C)C(=O)C(C)C(OC2OC(C)CC(N(C)C)C2O)C(C)(OC(=O)OCC=Cc2cn(-c3ncccn3)cn2)CC(C)C(=O)C(C)C2NC(=O)OC12C (stereo not shown) [Compound 34] | 0.12 (≈ 0.145 µM) | 1 (≈ 1.21 µM) | 0.25 (≈ 0.302 µM) | 0.03 µg/mL (≈ 0.0363 µM)
2 | CCC1OC(=O)C(C)C(=O)C(C)C(OC2OC(C)CC(N(C)C)C2O)C(C)(OC(=O)OCC=Cc2cn(-c3cnccn3)cn2)CC(C)C(=O)C(C)C2NC(=O)OC12C (stereo not shown) [Compound 35] | 0.12 (≈ 0.145 µM) | 1 (≈ 1.21 µM) | 0.25 (≈ 0.302 µM) | 0.03 µg/mL (≈ 0.0363 µM)
3 | CCC1OC(=O)C(C)C(=O)C(C)C(OC2OC(C)CC(N(C)C)C2O)C(C)(OC(=O)OCC=Cc2ccc3nccnc3c2)CC(C)C(=O)C(C)C2NC(=O)OC12C (stereo not shown) [Compound 44] | 0.06 (≈ 0.074 µM) | – | 0.12 (≈ 0.148 µM) | ≦0.015 μg/mL
4 | CCC1OC(=O)C(C)C(=O)C(C)C(OC2OC(C)CC(N(C)C)C2O)C(C)(OC(=O)OCCCc2ccc(-c3ncccn3)cc2)CC(C)C(=O)C(C)C2NC(=O)OC12C (stereo not shown) [Compound 139] | 0.06 (≈ 0.0715 µM) | – | 0.12 (≈ 0.143 µM) | 0.12 µg/mL (≈ 0.143 µM)
5 | CCC1OC(=O)C(C)(F)C(=O)C(C)C(OC2OC(C)CC(N(C)C)C2O)C(C)(OC(=O)OCC=Cc2ccc(-c3ncccn3)cc2)CC(C)C(=O)C(C)C2NC(=O)OC12C (stereo not shown) [Compound 288] | 0.12 (≈ 0.14 µM) | – | 0.25 (≈ 0.292 µM) | 0.06 µg/mL (≈ 0.0702 µM)
6 | CCC1OC(=O)C(C)C(=O)C(C)C(OC2OC(C)CC(N(C)C)C2O)C(C)(OC(=O)NOCCc2ccc(-c3cnccn3)cc2)CC(C)C(=O)C(C)C2NC(=O)OC12C (stereo not shown) [Compound 578] | 0.25 (≈ 0.298 µM) | – | 0.5 (≈ 0.595 µM) | 0.12 µg/mL (≈ 0.143 µM)
7 | CCC1OC(=O)C(C)C(=O)C(C)C(OC2OC(C)CC(N(C)C)C2O)C(C)(OC(=O)NOCC#Cc2ccc(-c3ncccn3)cc2)CC(C)C(=O)C(C)C2NC(=O)OC12C (stereo not shown) [Compound 602] | 0.12 (≈ 0.141 µM) | – | 0.25 (≈ 0.294 µM) | 0.03 µg/mL (≈ 0.0353 µM)
8 | CCC1OC(=O)C(C)C(=O)C(C)C(OC2OC(C)CC(N(C)C)C2O)C(C)(OC(=O)NOCC=Cc2ccc(-c3cnccn3)cc2)CC(C)C(=O)C(C)C2NC(=O)OC12C (stereo not shown) [Compound 606] | 0.12 (≈ 0.141 µM) | – | 0.25 (≈ 0.293 µM) | 0.06 µg/mL (≈ 0.0704 µM)
9 | CCC1OC(=O)C(C)C(=O)C(C)C(OC2OC(C)CC(N(C)C)C2O)C(C)(OC(=O)NOCC=Cc2ccc(-c3cccnn3)cc2)CC(C)C(=O)C(C)C2NC(=O)OC12C (stereo not shown) [Compound 607] | 0.25 (≈ 0.293 µM) | – | 0.25 (≈ 0.293 µM) | 0.03 µg/mL (≈ 0.0352 µM)
10 | CC[C@H]1OC(=O)[C@H](C)C(=O)[C@H](C)[C@@H](O[C@@H]2O[C@H](C)C[C@H](N(C)C)[C@H]2O)[C@](C)(OC(=O)NOC/C=C/c2cccnc2)C[C@@H](C)C(=O)[C@H](C)[C@H]2NC(=O)O[C@@]21C [Compound 615] | 0.25 (≈ 0.323 µM) | – | 1 (≈ 1.29 µM) | 0.06 µg/mL (≈ 0.0774 µM)
11 | CC[C@H]1OC(=O)[C@H](C)C(=O)[C@H](C)[C@@H](O[C@@H]2O[C@H](C)C[C@H](N(C)C)[C@H]2O)[C@](C)(OC(=O)NOC/C=C/c2cccc(-c3ncccn3)c2)C[C@@H](C)C(=O)[C@H](C)[C@H]2NC(=O)O[C@@]21C [Compound 616] | 0.25 (≈ 0.293 µM) | – | 0.5 (≈ 0.587 µM) | 0.06 µg/mL (≈ 0.0704 µM)
12 | CC[C@H]1OC(=O)[C@H](C)C(=O)[C@H](C)[C@@H](O[C@@H]2O[C@H](C)C[C@H](N(C)C)[C@H]2O)[C@](C)(OC(=O)NOC/C=C/c2ccc(-c3ccccn3)cc2)C[C@@H](C)C(=O)[C@H](C)[C@H]2NC(=O)O[C@@]21C [Compound 617] | 0.12 (≈ 0.141 µM) | – | 0.25 (≈ 0.294 µM) | 0.03 µg/mL (≈ 0.0353 µM)
13 | CC[C@H]1OC(=O)[C@H](C)C(=O)[C@H](C)[C@@H](O[C@@H]2O[C@H](C)C[C@H](N(C)C)[C@H]2O)[C@](C)(OC(=O)NOC/C=C/c2cnc3ccccc3c2)C[C@@H](C)C(=O)[C@H](C)[C@H]2NC(=O)O[C@@]21C [Compound 620] | 0.12 (≈ 0.145 µM) | – | 0.5 (≈ 0.606 µM) | 0.03 µg/mL (≈ 0.0364 µM)
14 | CC[C@H]1OC(=O)[C@H](C)C(=O)[C@H](C)[C@@H](O[C@@H]2O[C@H](C)C[C@H](N(C)C)[C@H]2O)[C@](C)(OC(=O)N(C)OCCc2ccc(-c3ncccn3)cc2)C[C@@H](C)C(=O)[C@H](C)[C@H]2NC(=O)O[C@@]21C [Compound 621] | 0.25 (≈ 0.293 µM) | – | 1 (≈ 1.17 µM) | 0.12 µg/mL (≈ 0.141 µM)

Other lines, results leading:

Row | MIC (C: E. faecalis ATCC29212) (E. faecalis ATCC29212) [µg/mL] | MIC (E: H. influenzae ATCC49247) (H. influenzae ATCC49247) [µg/mL] | MIC (B: S. aureus ATCC29213) (S. aureus ATCC29213) [µg/mL] | MIC (D: S. pneumoniae ATCC49619) (S. pneumoniae ATCC49619) | SMILES
15 | 0.06 (≈ 0.0717 µM) | 0.5 (≈ 0.597 µM) | 0.12 (≈ 0.143 µM) | 0.03 µg/mL (≈ 0.0358 µM) | CCC1OC(=O)C(C)C(=O)C(C)C(OC2OC(C)CC(N(C)C)C2O)C(C)(OC(=O)OCC=Cc2cccc(-c3ncccn3)c2)CC(C)C(=O)C(C)C2NC(=O)OC12C (stereo not shown) [Compound 15]
16 | 0.06 (≈ 0.0717 µM) | – | 0.12 (≈ 0.143 µM) | ≦0.015 μg/mL | CCC1OC(=O)C(C)C(=O)C(C)C(OC2OC(C)CC(N(C)C)C2O)C(C)(OC(=O)OCC=Cc2ccc(-c3cnccn3)cc2)CC(C)C(=O)C(C)C2NC(=O)OC12C (stereo not shown) [Compound 19]
17 | 0.06 (≈ 0.0727 µM) | – | 0.12 (≈ 0.145 µM) | ≦0.015 μg/mL | CCC1OC(=O)C(C)C(=O)C(C)C(OC2OC(C)CC(N(C)C)C2O)C(C)(OC(=O)OCC=Cc2ccc(-n3cccn3)cc2)CC(C)C(=O)C(C)C2NC(=O)OC12C (stereo not shown) [Compound 21]
18 | 0.06 (≈ 0.0726 µM) | 0.5 (≈ 0.605 µM) | 0.25 (≈ 0.303 µM) | ≦0.015 μg/mL | CCC1OC(=O)C(C)C(=O)C(C)C(OC2OC(C)CC(N(C)C)C2O)C(C)(OC(=O)OCC=Cc2ccc(-n3cncn3)cc2)CC(C)C(=O)C(C)C2NC(=O)OC12C (stereo not shown) [Compound 22]
19 | 0.06 (≈ 0.0726 µM) | 1 (≈ 1.21 µM) | 0.12 (≈ 0.145 µM) | ≦0.015 μg/mL | CCC1OC(=O)C(C)C(=O)C(C)C(OC2OC(C)CC(N(C)C)C2O)C(C)(OC(=O)OCC=Cc2ccc(-n3ccnn3)cc2)CC(C)C(=O)C(C)C2NC(=O)OC12C (stereo not shown) [Compound 24]
20 | 0.12 (≈ 0.143 µM) | 2 (≈ 2.38 µM) | 0.25 (≈ 0.298 µM) | 0.03 µg/mL (≈ 0.0358 µM) | CCC1OC(=O)C(C)C(=O)C(C)C(OC2OC(C)CC(N(C)C)C2O)C(C)(OC(=O)OCC=Cc2ccc(-c3ccn(C)n3)cc2)CC(C)C(=O)C(C)C2NC(=O)OC12C (stereo not shown) [Compound 26]
21 | 0.06 (≈ 0.0712 µM) | 1 (≈ 1.19 µM) | 0.12 (≈ 0.142 µM) | ≦0.015 μg/mL | CCC1OC(=O)C(C)C(=O)C(C)C(OC2OC(C)CC(N(C)C)C2O)C(C)(OC(=O)OCC=Cc2ccc(-n3cccn3)cc2F)CC(C)C(=O)C(C)C2NC(=O)OC12C (stereo not shown) [Compound 30]
22 | 0.06 (≈ 0.0711 µM) | 1 (≈ 1.18 µM) | 0.12 (≈ 0.142 µM) | 0.03 µg/mL (≈ 0.0355 µM) | CCC1OC(=O)C(C)C(=O)C(C)C(OC2OC(C)CC(N(C)C)C2O)C(C)(OC(=O)OCC=Cc2ccc(-n3cncn3)c(F)c2)CC(C)C(=O)C(C)C2NC(=O)OC12C (stereo not shown) [Compound 31]
23 | 0.12 (≈ 0.145 µM) | 1 (≈ 1.21 µM) | 0.25 (≈ 0.303 µM) | 0.06 µg/mL (≈ 0.0727 µM) | CCC1OC(=O)C(C)C(=O)C(C)C(OC2OC(C)CC(N(C)C)C2O)C(C)(OC(=O)OCC=Cc2cnn(-c3ccccc3)c2)CC(C)C(=O)C(C)C2NC(=O)OC12C (stereo not shown) [Compound 33]
24 | 0.06 (≈ 0.0741 µM) | 0.5 (≈ 0.617 µM) | 0.12 (≈ 0.148 µM) | ≦0.015 μg/mL | CCC1OC(=O)C(C)C(=O)C(C)C(OC2OC(C)CC(N(C)C)C2O)C(C)(OC(=O)OCC=Cc2cnc3ccccc3c2)CC(C)C(=O)C(C)C2NC(=O)OC12C (stereo not shown) [Compound 37]
25 | 0.06 (≈ 0.0741 µM) | – | 0.12 (≈ 0.148 µM) | 0.06 µg/mL (≈ 0.0741 µM) | CCC1OC(=O)C(C)C(=O)C(C)C(OC2OC(C)CC(N(C)C)C2O)C(C)(OC(=O)OCC=Cc2ccc3ncccc3c2)CC(C)C(=O)C(C)C2NC(=O)OC12C (stereo not shown) [Compound 40]
26 | 0.12 (≈ 0.143 µM) | – | 0.25 (≈ 0.298 µM) | 0.03 µg/mL (≈ 0.0357 µM) | CC[C@H]1OC(=O)[C@H](C)C(=O)[C@H](C)[C@@H](O[C@@H]2O[C@H](C)C[C@H](N(C)C)[C@H]2O)[C@](C)(OC(=O)NOC/C=C/c2ccc(-n3cccn3)cc2)C[C@@H](C)C(=O)[C@H](C)[C@H]2NC(=O)O[C@@]21C [Compound 619]
